We go through ten molecules from PubChem BioAssay (NCI).

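Test compounds were applied to cells in 96-well plates for 48 hours at 5 doses. GI50 = concentration required for 50% inhibition of growth. At the TGI there is no net growth.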

Common to all, as to assay: NCI tumour cell line growth inhibition, 48 h
Experiment [1] concerns UACC-62 melanoma.
The test system of experiment [2] is PC-3 prostate.
In experiment [3] the test system is MALME-3M melanoma.
Experiment [4] relates to UACC-257 melanoma.
The test system of experiment [5] is HT29 colon.
Experiment [6] concerns SK-MEL-2 melanoma.
The subject of experiment [7] is MDA-MB-231 breast.
The test system of experiment [8] is NCI-H226 lung.
In experiment [9] the test system is OVCAR-8 ovarian.
Experiment [10] deals with EKVX NSCLC.

`CNCCCNc1nc2ccccc2c2c(=O)c3cc(Cl)ccc3sc12`: the GI50 in [1] was 1.62 µM; in experiment [2], 1.52 µM; in experiment [3], 1.87 µM; in experiment [4], 1.8 µM; in experiment [5] it was 1.67 µM; in experiment [6], 1.75 µM. Also, the GI50 was 1.33 µM in [7] and 4.58 µM in experiment [8]. The TGI is 3.04 µM in experiment [1]; 3.02 µM in [2]; 3.62 µM in experiment [3]; 3.31 µM in [4]; 3.13 µM in [5]; 3.43 µM in experiment [6]. For the same molecule, the values for the TGI in [7] and in [8] were 2.67 µM and 47.1 µM, respectively.
Regarding `CC(=O)OC1CC2C(C)(C)C(=O)C=CC2(C)C2CCC3(C)C(c4ccoc4)OC(=O)C4OC43C12C` (stereo not drawn), the TGI in experiment [1] was 18.4 µM; in [2] it was over 100 µM; in experiment [9], 53.9 µM; in [4], over 100 µM; in [10], over 100 µM; in [5], 39 µM. Also, the TGI in [6] was 39.2 µM; in [7] it was 14.1 µM; in experiment [8], over 100 µM.
Turning to `CNC1C(O)C(OC2C(N)CC(N)C(OC3OC(C(C)O)C(O)C(O)C3N)C2O)OCC1(C)O` (stereo not drawn), the TGI in experiment [1], in [2], in experiment [9], in [10], in [5] and in experiment [6] was over 100 µM each time. In addition, the TGI in experiment [7] and in experiment [8] was over 100 µM each time.
As for `CCC1CCc2nc3sc(C(=O)Nc4ccccc4C)c(N)c3cc2C1` (stereo not drawn), the GI50 in experiment [1] is 0.329 µM; in experiment [2] it was 0.622 µM; in experiment [9], over 100 µM; in experiment [4], 0.486 µM; in [6] it was 0.46 µM; in experiment [7], over 100 µM. Also, the GI50 in experiment [8] is over 100 µM. The TGI in experiment [1], in experiment [2], in [9], in experiment [4], in experiment [6] and in experiment [7] was over 100 µM throughout. In experiment [8], this molecule returned a TGI of over 100 µM.
Regarding `N[C@@H]1CCCN(c2c(/C=C3\SC(=O)NC3=O)cccc2-c2ccccc2)C1`, the GI50 in experiment [1] is 13.7 µM; in [2], 10.2 µM; in [3], 7.52 µM; in [9] it was 14 µM; in experiment [4] it was 10.9 µM; in experiment [5] it was 12.8 µM. The GI50 in experiment [6] was 15.2 µM; in experiment [7], 7.77 µM; in [8] it was 12.8 µM. Besides, the TGI amounted to 27.3 µM in [1]; 25.2 µM in experiment [2]; 24.5 µM in [3]; 27.9 µM in experiment [9]; 23.5 µM in experiment [4]; 27.8 µM in experiment [5]. In addition, the TGI in experiment [6] was found to be 30.3 µM; in [7], 23.1 µM; in experiment [8], 36.9 µM.
Consider `CC/C(C)=C1\OC(=O)C(C)C(O)C(Cc2cccnc2)NC(=O)C(NC(=O)c2ncccc2O)C(C)OC1=O` (stereo not drawn), for which the TGI in experiment [1], in experiment [2], in experiment [3], in experiment [9], in experiment [4] and in [10] was over 100 µM throughout. In addition, the TGI in [5], in experiment [6] and in experiment [7] was over 100 µM in each case.
With `CCCCn1sc(=O)n(Cc2ccc(CNC(=O)OCc3ccc4c(Br)cc(Br)c(O)c4n3)cc2)c1=O`, the GI50 in [1] is 0.916 µM; in [2], 0.651 µM; in experiment [3] it was 0.831 µM; in [9], 0.415 µM; in experiment [4], over 100 µM; in experiment [10], over 40.6 µM. In addition, the GI50 in experiment [5] is 28.6 µM; in [6] it was 1.28 µM; in experiment [7] it was 0.475 µM. Further, the TGI in experiment [1] is over 100 µM; in experiment [2] it was over 100 µM; in [3], over 100 µM; in experiment [9], over 81.4 µM; in experiment [4], over 100 µM; in experiment [10] it was over 100 µM. In addition, the values for the TGI in experiment [5], in experiment [6] and in experiment [7] were over 100 µM, over 100 µM and over 51.1 µM, respectively.
Regarding `Nc1nnc(Cn2c(-c3ccccc3)nc3ccc(Br)cc3c2=O)s1`, the GI50 in experiment [1] was 15.2 µM; in experiment [2], 38.2 µM; in experiment [9], 1.25 µM; in experiment [10], over 100 µM; in experiment [5], 48.1 µM; in [6], over 100 µM. The GI50 in experiment [7] is 36.2 µM. For the same molecule, the TGI in experiment [1] was over 100 µM; in experiment [2] it was over 100 µM; in [9] it was 41 µM; in experiment [10], over 100 µM; in experiment [5] it was over 100 µM; in [6], over 100 µM. Also, the TGI in [7] is over 100 µM.
With `COc1ccc(-c2cc(=O)c3c(O)cc(C)cc3o2)cc1OC`, the TGI in experiment [1], in experiment [2], in experiment [3], in experiment [4], in experiment [10] and in [5] was over 100 µM throughout. Also, the TGI in experiment [6], in [7] and in experiment [8] was over 100 µM each time.
For `O=C(O)C1(Cc2cccc(Nc3nccs3)n2)CCC(Oc2cccc(Cl)c2F)CC1` (stereo not drawn), the GI50 is 17.4 µM in [2]; 20.5 µM in experiment [3]; 18.9 µM in experiment [9]; 31.6 µM in experiment [4]; 13.6 µM in [10]; 7.56 µM in [5]. For the same molecule, the GI50 in experiment [6] was 17.6 µM; in experiment [7], 14.7 µM; in experiment [8] it was 11.6 µM. The TGI in experiment [2] was 84.3 µM; in [3], 54.3 µM; in experiment [9], over 100 µM; in [4], over 81.1 µM; in experiment [10] it was 47.4 µM; in [5] it was 24.2 µM. The TGI in experiment [6] amounted to 36.4 µM; in [7], 41.6 µM; in [8], 39.6 µM.
